Reference: PubChem BioAssay (NCI)
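Briefly, cells in 96-well plates were exposed to five compound concentrations for 48 h, and endpoints were estimated by linear interpolation. TGI denotes the concentration required for complete inhibition of growth.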

Assays:
Experiment in all cases: growth of human tumour cells (NCI), 48 h
[1] = tested on: 786-0 renal
[2] = tested on: KM12 colon
[3] = tested on: SF-539 CNS
[4] = tested on: HOP-92 NSCLC
[5] = tested on: SNB-19 CNS
[6] = tested on: A549 NSCLC
[7] = tested on: SK-MEL-2 melanoma
[8] = tested on: HCT-15 colon
[9] = tested on: COLO 205 colon
[10] = tested on: RPMI-8226 leukemia

## O=C1c2ccccc2C2(c3ccc(Cl)cc3)N[C@@H]3CCCC[C@@H]3N12 (stereo partly specified)
[1]
  TGI: > 100 µM
[2]
  TGI: > 100 µM
[3]
  TGI: > 100 µM
[4]
  TGI: > 100 µM
[5]
  TGI: > 100 µM
[6]
  TGI: > 100 µM
[7]
  TGI: > 100 µM
[8]
  TGI: > 100 µM
[9]
  TGI: > 100 µM
[10]
  TGI: > 100 µM

## CCOC(=O)/C(C1=N[C@H](C(=O)OCC)CS1)=C(\O)c1ccccc1
[2]
  TGI: > 100 µM
[5]
  TGI: > 100 µM
[6]
  TGI: > 100 µM
[7]
  TGI: > 100 µM
[8]
  TGI: > 100 µM
[9]
  TGI: > 100 µM
[10]
  TGI: > 100 µM

## Cn1c(O)c(/C=N/c2ncccn2)c(=O)[nH]c1=O
[1]
  TGI: > 100 µM
[2]
  TGI: > 100 µM
[3]
  TGI: > 100 µM
[4]
  TGI: > 100 µM
[5]
  TGI: > 100 µM
[6]
  TGI: > 100 µM
[7]
  TGI: > 100 µM
[8]
  TGI: > 100 µM
[9]
  TGI: > 100 µM

## O=P1(N(CCCl)CCCl)NCCCO1 (stereo unspecified)
[1]
  TGI: > 250 µM
[2]
  TGI: > 238 µM
[3]
  TGI: > 250 µM
[4]
  TGI: > 250 µM
[5]
  TGI: > 250 µM
[6]
  TGI: > 239 µM
[7]
  TGI: > 238 µM
[8]
  TGI: > 250 µM
[9]
  TGI: > 250 µM
[10]
  TGI: > 250 µM

## CC(=O)NC1C(OCc2ccccc2)OC(CO)C(O)C1OCC(=O)N[C@@H](C)C(=O)N[C@H](CCC(=O)NCCCCNc1c2ccccc2nc2cccc([N+](=O)[O-])c12)C(N)=O (stereo partly specified)
[1]
  TGI: 10.1 µM
[2]
  TGI: 5.32 µM
[3]
  TGI: 6 µM
[4]
  TGI: 4.45 µM
[5]
  TGI: 24 µM
[6]
  TGI: > 100 µM
[7]
  TGI: 5 µM
[8]
  TGI: 14.7 µM
[9]
  TGI: 3.33 µM
[10]
  TGI: 8.88 µM

## CCOC(=O)c1c(SCCN2CCCCC2)n(-c2ccccc2)c(=S)n(-c2ccccc2)c1=O
[1]
  TGI: 28.1 µM
[2]
  TGI: 35 µM
[4]
  TGI: 30.8 µM
[5]
  TGI: > 100 µM
[6]
  TGI: > 100 µM
[7]
  TGI: > 100 µM
[8]
  TGI: 9.82 µM
[9]
  TGI: 19.9 µM
[10]
  TGI: > 21.9 µM

## COc1ccc(OC)c(-c2cn3c(n2)sc2ccccc23)c1
[1]
  TGI: > 100 µM
[2]
  TGI: > 100 µM
[3]
  TGI: > 100 µM
[4]
  TGI: > 100 µM
[5]
  TGI: > 100 µM
[6]
  TGI: > 100 µM
[7]
  TGI: > 100 µM
[8]
  TGI: > 100 µM
[9]
  TGI: > 100 µM
[10]
  TGI: > 100 µM

## OCC1c2ccccc2-n2nc(-c3ccccc3)c(O)c21 (stereo unspecified)
[1]
  TGI: 32.1 µM
[2]
  TGI: 46.1 µM
[3]
  TGI: > 100 µM
[4]
  TGI: 35 µM
[5]
  TGI: > 100 µM
[6]
  TGI: > 100 µM
[7]
  TGI: 43.9 µM
[8]
  TGI: 29.2 µM
[9]
  TGI: 26.5 µM

## COc1ccccc1NC(=O)CSC(N)=O
[1]
  TGI: 36.6 µM
[2]
  TGI: > 100 µM
[3]
  TGI: 70.4 µM
[4]
  TGI: > 100 µM
[5]
  TGI: > 100 µM
[6]
  TGI: > 100 µM
[7]
  TGI: 61.4 µM
[8]
  TGI: > 100 µM
[9]
  TGI: > 100 µM
[10]
  TGI: > 100 µM

## C=C1CC(Cn2cc(Br)c(=O)[nH]c2=O)(c2ccc(Br)cc2)OC1=O (stereo unspecified)
[1]
  TGI: 3.27 µM
[2]
  TGI: > 38.7 µM
[3]
  TGI: 23.7 µM
[4]
  TGI: 2.96 µM
[5]
  TGI: 30.4 µM
[6]
  TGI: 29 µM
[7]
  TGI: 3.74 µM
[8]
  TGI: 3.85 µM
[9]
  TGI: 3.18 µM
[10]
  TGI: 1.61 µM

## CC(=O)NCC1OC2COC(c3ccccc3)OC2C2N=C(c3ccccc3)OC12 (stereo unspecified)
[1]
  TGI: > 100 µM
[2]
  TGI: > 100 µM
[3]
  TGI: > 100 µM
[4]
  TGI: > 100 µM
[5]
  TGI: > 100 µM
[6]
  TGI: > 100 µM
[7]
  TGI: > 100 µM
[8]
  TGI: > 100 µM
[9]
  TGI: > 100 µM
[10]
  TGI: 89.1 µM

## COc1ccc(C2C3=CONC3CC3CCCCC32)cc1 (stereo unspecified)
[1]
  TGI: > 100 µM
[5]
  TGI: > 100 µM
[6]
  TGI: > 100 µM
[7]
  TGI: > 100 µM
[10]
  TGI: > 100 µM

## C/C(=N\NC(=O)c1ccncc1)c1cccc(C(F)(F)F)c1
[2]
  TGI: > 10 µM
[3]
  TGI: > 10 µM
[4]
  TGI: > 10 µM
[6]
  TGI: > 10 µM
[8]
  TGI: > 10 µM
[9]
  TGI: > 10 µM
[10]
  TGI: > 10 µM

## CN1C(=O)C(CCO)(C(C)(C)C)c2ccccc21 (stereo unspecified)
[1]
  TGI: > 100 µM
[2]
  TGI: > 100 µM
[4]
  TGI: > 100 µM
[5]
  TGI: > 100 µM
[6]
  TGI: > 100 µM
[7]
  TGI: > 100 µM
[8]
  TGI: > 100 µM
[9]
  TGI: > 100 µM
[10]
  TGI: > 100 µM

## C=C(C)C(=O)O[C@H]1CC2(CO)O[C@@H]2CC/C(COC(C)=O)=C/C2OC(=O)C(=C)[C@@H]21 (stereo partly specified)
[1]
  TGI: > 31.6 µM
[2]
  TGI: > 100 µM
[3]
  TGI: > 100 µM
[4]
  TGI: 51.9 µM
[5]
  TGI: > 100 µM
[6]
  TGI: > 100 µM
[7]
  TGI: > 100 µM
[8]
  TGI: > 96.7 µM
[9]
  TGI: 48.4 µM
[10]
  TGI: 31.3 µM

## CCOC(=O)NC(OCc1ccccc1)(C(=O)OC)C(F)(F)F (stereo unspecified)
[2]
  TGI: > 100 µM
[3]
  TGI: > 100 µM
[4]
  TGI: > 100 µM
[5]
  TGI: > 100 µM
[6]
  TGI: > 100 µM
[7]
  TGI: > 100 µM
[8]
  TGI: > 100 µM
[9]
  TGI: > 100 µM
[10]
  TGI: > 100 µM

## Cc1ccc(Cl)c2c(=O)cc(-c3ccccc3)[nH]c12
[1]
  TGI: > 100 µM
[2]
  TGI: > 100 µM
[3]
  TGI: > 100 µM
[4]
  TGI: > 100 µM
[6]
  TGI: > 100 µM
[7]
  TGI: > 100 µM
[8]
  TGI: > 100 µM
[9]
  TGI: > 100 µM
[10]
  TGI: > 100 µM

## Oc1ccc(O)c(Sc2nnc(CCCCCCCCc3nnc(Sc4cc(O)ccc4O)o3)o2)c1
[1]
  TGI: 35.7 µM
[2]
  TGI: > 100 µM
[4]
  TGI: 65.7 µM
[5]
  TGI: > 100 µM
[6]
  TGI: > 100 µM
[7]
  TGI: > 100 µM
[8]
  TGI: > 100 µM
[9]
  TGI: > 100 µM
[10]
  TGI: > 100 µM

## O=C(c1ccccc1)c1ccc2nc(-c3c(Cl)c(Cl)c(Cl)c(Cl)c3C(=O)Nc3ccco3)[nH]c2c1
[1]
  TGI: > 100 µM
[2]
  TGI: > 100 µM
[4]
  TGI: > 100 µM
[5]
  TGI: > 100 µM
[6]
  TGI: > 100 µM
[7]
  TGI: 80.4 µM
[8]
  TGI: > 100 µM
[9]
  TGI: > 100 µM
[10]
  TGI: > 100 µM

## O=c1cnc2cc3ccccc3cc2[nH]1
[1]
  TGI: > 100 µM
[2]
  TGI: > 100 µM
[4]
  TGI: > 100 µM
[5]
  TGI: > 100 µM
[6]
  TGI: > 100 µM
[7]
  TGI: > 100 µM
[8]
  TGI: > 100 µM
[9]
  TGI: > 100 µM
[10]
  TGI: > 100 µM

## COc1ccc(C[C@H]2COC(=O)[C@@H]2Cc2ccccc2)cc1OC
[1]
  TGI: > 100 µM
[2]
  TGI: > 100 µM
[5]
  TGI: > 100 µM
[6]
  TGI: > 100 µM
[10]
  TGI: > 100 µM

## O=C(NCCNCCO)N/N=C/c1ccccc1
[1]
  TGI: > 100 µM
[2]
  TGI: > 100 µM
[3]
  TGI: > 100 µM
[5]
  TGI: > 100 µM
[6]
  TGI: > 100 µM
[7]
  TGI: > 100 µM
[8]
  TGI: > 100 µM

## C/C=C\C(CC(=O)NCCc1c[nH]c2ccccc12)CC(=O)OC (stereo unspecified)
[1]
  TGI: > 100 µM
[2]
  TGI: > 100 µM
[4]
  TGI: > 100 µM
[5]
  TGI: > 100 µM
[6]
  TGI: > 100 µM
[7]
  TGI: > 100 µM
[8]
  TGI: > 100 µM
[9]
  TGI: > 100 µM
[10]
  TGI: > 100 µM
